In experiment [1] the target is T1, Glucocorticoid receptor (Homo sapiens, UniProt P04150).
T1 sequence (P04150 whole entry): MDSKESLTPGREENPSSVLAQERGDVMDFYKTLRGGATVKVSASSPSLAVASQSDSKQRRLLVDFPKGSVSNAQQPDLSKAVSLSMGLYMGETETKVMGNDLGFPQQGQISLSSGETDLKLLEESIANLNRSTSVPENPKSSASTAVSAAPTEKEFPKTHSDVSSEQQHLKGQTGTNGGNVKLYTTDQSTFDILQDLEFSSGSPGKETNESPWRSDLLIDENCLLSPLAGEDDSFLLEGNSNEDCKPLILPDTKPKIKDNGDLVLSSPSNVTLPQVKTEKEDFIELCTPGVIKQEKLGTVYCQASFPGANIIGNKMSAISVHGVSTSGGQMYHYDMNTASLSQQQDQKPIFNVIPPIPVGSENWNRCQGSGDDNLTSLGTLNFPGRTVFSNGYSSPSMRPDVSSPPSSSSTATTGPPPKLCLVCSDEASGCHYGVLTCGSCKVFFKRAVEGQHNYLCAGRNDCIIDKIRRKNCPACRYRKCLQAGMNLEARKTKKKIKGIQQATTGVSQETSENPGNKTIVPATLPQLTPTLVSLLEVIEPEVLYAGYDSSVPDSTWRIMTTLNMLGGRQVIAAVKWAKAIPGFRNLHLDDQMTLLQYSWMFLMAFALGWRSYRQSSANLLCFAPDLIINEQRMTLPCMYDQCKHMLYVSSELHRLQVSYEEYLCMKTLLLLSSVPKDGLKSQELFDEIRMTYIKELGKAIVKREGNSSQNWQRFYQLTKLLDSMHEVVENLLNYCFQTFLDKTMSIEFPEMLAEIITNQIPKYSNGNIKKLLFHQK

For experiment [2], the target named is T1, Glucocorticoid receptor. This is another data set of the same source.
Experiment [3] deals with T1, Glucocorticoid receptor. The source holds these as a separate data set.
Description: Agonist activity at GR assessed as NF-kappaB-mediated transrepression of secreted placental alkaline phosphatase gene in human A549 cells
Experiment [4] deals with T1, Glucocorticoid receptor. The source holds these as a separate data set.
The next experiment relates to Mus musculus. The experiment is described as follows: Anti-inflammatory activity against oxazolone-induced ear skin delayed types hypersensitivity model in topically dosed BALB/c mouse. The format is functional.
Experiment [5] concerns the target T2, Glucocorticoid receptor (Homo sapiens) (UniProt P04150).
T2 sequence (whole entry): T1 sequence (P04150 whole entry)
The experiment is described as follows: Selectivity for MMTV transactivation assay over NF-kappaB transrepression assay for GR agonism in A549 cells. The class given is functional, cell-based.

For experiment [6], the species on record is Homo sapiens. The experiment is described as follows: Selectivity for GR in NF-kappaB transrepression assay over MR antagonism. The class given is functional.
Experiment [7] addresses Estrogen receptor (Homo sapiens) (UniProt Q92731+P03372). The experiment is described as follows: Activity at ER. The format is protein assay.
Experiment [8] is filed under the species Homo sapiens. The experiment is described as follows: Selectivity for GR over AR by binding assay.
For experiment [9], the species on record is Homo sapiens. The experiment can be described thus: Selectivity for GR over AR by functional assay.
The species named for experiment [10] is Homo sapiens. The experiment is described as follows: Selectivity for GR over PR by binding assay.
The species named for experiment [11] is Homo sapiens. The experiment is described as follows: Selectivity for GR over PR by functional assay.

The source made the active and inactive calls. The calls are words filed in the database; no cut-off is given here. Some results are limits rather than exact numbers.

For orientation: IC50 means the midpoint of a concentration-inhibition curve. Higher therefore signals weaker potency. As a reminder, the EC50 is the concentration giving half of the maximal effect. For the molecule `CCCCC1(CC(O)(C(=O)Nc2ccc3c(=O)onc(C)c3c2)C(F)(F)F)CCCc2ccccc21` (centres undefined), the IC50 on Glucocorticoid receptor [1] is 3.09 nM; on Glucocorticoid receptor [3], 6.61 nM. This molecule registered an EC50 on Glucocorticoid receptor [2] greater than 1000 nM.
As for `Cc1noc(=O)c2ccc(NC(=O)C(O)(CC3CCCc4c(F)cccc43)C(F)(F)F)cc12` (centres undefined), the results for the half-inhibitory concentration (IC50) on Glucocorticoid receptor [1], against Glucocorticoid receptor [3] and at Glucocorticoid receptor [4] were 15.8 nM, greater than 1000 nM and 501 nM, respectively.
On to `Cc1noc(=O)c2ccc(NC(=O)C(O)(CC3(C4CC4)CCCc4ccccc43)C(F)(F)F)cc12` (centres undefined), for which the results for the IC50 against Glucocorticoid receptor [1], against Glucocorticoid receptor [3] and against Glucocorticoid receptor [4] were 4.68 nM, 9.55 nM and 204 nM, respectively. Moreover, on Glucocorticoid receptor [2], the EC50 was 39.8 nM.
As to `CCC1(CC(O)(C(=O)Nc2ccc3c(=O)onc(C)c3c2)C(F)(F)F)CCCCc2ccccc21` (centres undefined), the concentration for half-maximal inhibition (IC50) on Glucocorticoid receptor [1] was 10 nM; against Glucocorticoid receptor [3] it was 7.94 nM. The molecule also returned an EC50 on Glucocorticoid receptor [2] greater than 10000 nM.
Turning to `C[C@@H]1C[C@H]2[C@@H]3CCC4=CC(=O)C=C[C@]4(C)[C@@]3(F)[C@@H](O)C[C@]2(C)[C@@]1(O)C(=O)CO` [DEXAMETHASONE], in the experiment on Mus musculus, the ED50 was determined as 0.27 µg.
Take `Cc1noc(=O)c2ccc(NC(=O)C(O)(CC3CCCc4c(N)cccc43)C(F)(F)F)cc12` (centres undefined): the results for the IC50 at Glucocorticoid receptor [1], against Glucocorticoid receptor [3] and at Glucocorticoid receptor [4] were 25.1 nM, greater than 1000 nM and 2000 nM, respectively.
Regarding `Cc1cccc2c1CCCC2CC(O)(C(=O)Nc1ccc2c(=O)onc(C)c2c1)C(F)(F)F` (stereo in doubt; 19b), the IC50 on Glucocorticoid receptor [1] is 3.16 nM; on Glucocorticoid receptor [3], greater than 1000 nM; on Glucocorticoid receptor [4], 200 nM.
As for `CCC1(CC(O)(C(=O)Nc2ccc3c(=O)onc(C)c3c2)C(F)(F)F)CCCc2cc([N+](=O)[O-])ccc21` (centres undefined), the IC50 was 7.94 nM at Glucocorticoid receptor [1], greater than 10000 nM on Glucocorticoid receptor [3] and 794 nM at Glucocorticoid receptor [4].
Consider `Cc1noc(=O)c2ccc(NC(=O)C(O)(CC3(C4CCCCC4)CCCc4ccccc43)C(F)(F)F)cc12` (centres undefined), for which the IC50 on Glucocorticoid receptor [1] is 8.51 nM; against Glucocorticoid receptor [3] it was 3.31 nM; against Glucocorticoid receptor [4], 200 nM. In addition, the EC50 at Glucocorticoid receptor [2] is 20.9 nM.
As for `CCCC1(CC(O)(C(=O)Nc2ccc3c(=O)onc(C)c3c2)C(F)(F)F)CCCc2ccccc21` (centres undefined), the results for the IC50 on Glucocorticoid receptor [1], against Glucocorticoid receptor [3] and on Glucocorticoid receptor [4] were 5.62 nM, 4.68 nM and 25.1 nM, respectively. For the same molecule, the EC50 at Glucocorticoid receptor [2] was 20 nM. This molecule also yielded an Efficacy in [5] of 67%.
For the molecule `Cc1noc(=O)c2ccc(NC(=O)[C@](O)(C[C@@]3(C4CCCC4)CCCc4ccccc43)C(F)(F)F)cc12`, the Selectivity ratio is greater than 100 in the experiment filed under Homo sapiens [6], greater than 50 in the experiment filed under Homo sapiens [8] and greater than 50 in the experiment filed under Homo sapiens [9]. The outcome in experiment [7] was inactive. The IC50 is 8.13 nM at Glucocorticoid receptor [1], 2.04 nM against Glucocorticoid receptor [3] and 53.7 nM on Glucocorticoid receptor [4]. The molecule also returned an ED50 in the experiment on Mus musculus of 0.05 µg. This molecule also gave an EC50 at Glucocorticoid receptor [2] of 17.8 nM.
Regarding `Cc1noc(=O)c2ccc(NC(=O)C(O)(CC3(c4ccccc4)CCCc4ccccc43)C(F)(F)F)cc12` (centres undefined), the values for the 50% inhibitory concentration (IC50) against Glucocorticoid receptor [1], on Glucocorticoid receptor [3] and against Glucocorticoid receptor [4] were 14.5 nM, greater than 10000 nM and 1380 nM, respectively.
In the case of `CCC1(CC(O)(C(=O)Nc2ccc3c(=O)onc(C)c3c2)C(F)(F)F)CCCc2ccccc21` (centres undefined), the IC50 at Glucocorticoid receptor [1] was 6.17 nM; against Glucocorticoid receptor [3] it was 5.01 nM; at Glucocorticoid receptor [4] it was 200 nM. The molecule further gave an ED50 in the experiment on Mus musculus of 5 µg. Further, the response at Glucocorticoid receptor [2] was half-maximal at 9.12 nM (EC50).
Consider `Cc1noc(=O)c2ccc(NC(=O)C(O)(CC3(C(C)C)CCCc4ccccc43)C(F)(F)F)cc12` (centres undefined), for which the values for the IC50 at Glucocorticoid receptor [1], at Glucocorticoid receptor [3] and against Glucocorticoid receptor [4] were 4.79 nM, 2.95 nM and 129 nM, respectively. The EC50 at Glucocorticoid receptor [2] was 18.6 nM. Further, in experiment [5], the Efficacy came out at 34%.
For `CCC(CC)C1(CC(O)(C(=O)Nc2ccc3c(=O)onc(C)c3c2)C(F)(F)F)CCCc2ccccc21` (centres undefined), the Selectivity ratio was greater than 100 in the experiment listed under Homo sapiens [6]; 10 in the experiment filed under Homo sapiens [10]; 10 in the experiment listed under Homo sapiens [11]; greater than 50 in the experiment listed under Homo sapiens [8]; greater than 50 in the experiment listed under Homo sapiens [9]. In [7], the outcome was inactive. Besides, the IC50 at Glucocorticoid receptor [1] is 5.25 nM; against Glucocorticoid receptor [3], 1.2 nM; against Glucocorticoid receptor [4], 66.1 nM. In the experiment with Mus musculus, this molecule yielded an ED50 of 0.35 µg. The same molecule gave an EC50 on Glucocorticoid receptor [2] of 6.31 nM. For the same molecule, in experiment [5], the Efficacy is 50%.
For the molecule `CCC1(CC(O)(C(=O)Nc2ccc3c(=O)onc(C)c3c2)C(F)(F)F)CCCc2c([N+](=O)[O-])cccc21` (centres undefined), the IC50 was 5.01 nM against Glucocorticoid receptor [1], greater than 10000 nM against Glucocorticoid receptor [3] and 251 nM against Glucocorticoid receptor [4].
Regarding `Cc1noc(=O)c2ccc(NC(=O)C(O)(CC3(C4CCC4)CCCc4ccccc43)C(F)(F)F)cc12` (centres undefined), the figures for the IC50 against Glucocorticoid receptor [1], on Glucocorticoid receptor [3] and at Glucocorticoid receptor [4] were 9.55 nM, 4.9 nM and 166 nM, respectively. In addition, the half-maximal effective concentration (EC50) on Glucocorticoid receptor [2] is 17.4 nM.
As to `Cc1noc(=O)c2ccc(NC(=O)C(O)(CC3(CC(C)C)CCCc4ccccc43)C(F)(F)F)cc12` (centres undefined), the 50% effective concentration (EC50) on Glucocorticoid receptor [2] was greater than 1000 nM.
As for `CCC1(CC(O)(C(=O)Nc2ccc3c(=O)onc(C)c3c2)C(F)(F)F)CCCc2ccc([N+](=O)[O-])cc21` (centres undefined), the IC50 is 6.31 nM against Glucocorticoid receptor [1], greater than 10000 nM against Glucocorticoid receptor [3] and 316 nM at Glucocorticoid receptor [4].
In the case of `Cc1noc(=O)c2ccc(NC(=O)C(O)(CC3CCCc4c(Cl)cccc43)C(F)(F)F)cc12` (stereo in doubt; 20b), the IC50 was 5.01 nM against Glucocorticoid receptor [1], greater than 1000 nM against Glucocorticoid receptor [3] and 398 nM on Glucocorticoid receptor [4].
Regarding `Cc1noc(=O)c2ccc(NC(=O)C(O)(CC3(C)CCCc4ccccc43)C(F)(F)F)cc12` (stereo in doubt; 35d), the IC50 at Glucocorticoid receptor [1] is 10 nM; at Glucocorticoid receptor [3], 20 nM; on Glucocorticoid receptor [4], 398 nM. Further, on Glucocorticoid receptor [2], the EC50 was greater than 10000 nM.

(Values after ChEMBL document CHEMBL1138886, “Dissociated nonsteroidal glucocorticoid receptor modulators; discovery of the agonist trigger in a tetrahydronaphthalene-benzoxazine series” (J Med Chem, 2006).)
